Assay results: patent US20020081574A1, “Methods for identifying inhibitors of helicase C virus” (priority 1996, published 2002)

Key:
[1] = biological target: T1, HCV NS3 RNA helicase (Hepatitis C virus genotype 1a, UniProt P27958); type: biochemical; conditions: for helicase activity levels reduced when substituting for Mn^+2: divalent cation tested at 3 mM
T1 construct: derived from the full length, native polypeptide (residues 1027-1657); made in house; host or cells: Spodoptera frugiperda Sf9 cells, recombinant baculovirus bacNS3-5B (polyprotein residues 1027-3011 expressed and processed)

[2] = system: HCV; conditions: cited from earlier work

T1 sequence (P27958 1027-1657): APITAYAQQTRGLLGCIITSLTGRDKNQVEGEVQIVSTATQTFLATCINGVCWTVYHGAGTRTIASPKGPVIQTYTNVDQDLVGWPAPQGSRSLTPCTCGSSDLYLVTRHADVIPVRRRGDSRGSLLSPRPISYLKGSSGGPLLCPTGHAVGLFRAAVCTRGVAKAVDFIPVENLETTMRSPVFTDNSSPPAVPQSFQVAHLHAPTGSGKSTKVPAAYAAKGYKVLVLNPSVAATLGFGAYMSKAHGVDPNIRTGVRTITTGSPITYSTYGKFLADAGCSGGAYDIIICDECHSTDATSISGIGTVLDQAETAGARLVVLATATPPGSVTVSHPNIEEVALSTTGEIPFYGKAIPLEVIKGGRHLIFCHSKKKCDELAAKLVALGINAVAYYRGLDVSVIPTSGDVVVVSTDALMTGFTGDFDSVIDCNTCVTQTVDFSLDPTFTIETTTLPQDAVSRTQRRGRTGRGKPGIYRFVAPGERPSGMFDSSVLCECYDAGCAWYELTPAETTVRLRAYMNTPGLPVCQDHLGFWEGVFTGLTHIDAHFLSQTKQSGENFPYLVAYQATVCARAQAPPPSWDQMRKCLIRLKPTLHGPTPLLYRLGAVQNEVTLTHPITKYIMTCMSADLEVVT

Row | Compound | helicase activity levels reduced when substituting for Mn^+2 [1] [fold] | effect of monovalent cations on HCV NS3 helicase activity [1] | further results
1 | [Cu+2] [Cu^+2] | 7 |  | 
2 | [K+] [K^+] |  | inhibit | 
3 | [Na+] [Na^+] |  | inhibit | 
4 | [Zn+2] [Zn^+2] | 2 |  | 
5 | [Ca+2] [Ca^+2] | 3 |  | 
6 | interferon alpha [IFN-α] |  |  | improved serum liver enzyme response ([2]; IFN treatment): 20-40 % of patients; sustained improvement of aminotransferase levels ([2]; responders): 10-20 % of patients
